# Assay results reported in ChEMBL document CHEMBL5465560, “Selectivity Literature for EUbOPEN Chemogenomic Library” (2024).
# Key:
# [1] = molecular target: Serine/threonine-protein kinase PAK 2 (Homo sapiens) (UniProt Q13177); assay: Selectivity interaction (KinomeScan (DiscoverX)) EUB0000229b PAK2; conditions: at 10 µM
# [2] = molecular target: T1, Serine/threonine-protein kinase D1 (Homo sapiens) (UniProt Q15139); assay: Selectivity interaction (KinomeScan (DiscoverX)) EUB0001079a PRKD1; conditions: at 1 µM
# T1 sequence (whole entry): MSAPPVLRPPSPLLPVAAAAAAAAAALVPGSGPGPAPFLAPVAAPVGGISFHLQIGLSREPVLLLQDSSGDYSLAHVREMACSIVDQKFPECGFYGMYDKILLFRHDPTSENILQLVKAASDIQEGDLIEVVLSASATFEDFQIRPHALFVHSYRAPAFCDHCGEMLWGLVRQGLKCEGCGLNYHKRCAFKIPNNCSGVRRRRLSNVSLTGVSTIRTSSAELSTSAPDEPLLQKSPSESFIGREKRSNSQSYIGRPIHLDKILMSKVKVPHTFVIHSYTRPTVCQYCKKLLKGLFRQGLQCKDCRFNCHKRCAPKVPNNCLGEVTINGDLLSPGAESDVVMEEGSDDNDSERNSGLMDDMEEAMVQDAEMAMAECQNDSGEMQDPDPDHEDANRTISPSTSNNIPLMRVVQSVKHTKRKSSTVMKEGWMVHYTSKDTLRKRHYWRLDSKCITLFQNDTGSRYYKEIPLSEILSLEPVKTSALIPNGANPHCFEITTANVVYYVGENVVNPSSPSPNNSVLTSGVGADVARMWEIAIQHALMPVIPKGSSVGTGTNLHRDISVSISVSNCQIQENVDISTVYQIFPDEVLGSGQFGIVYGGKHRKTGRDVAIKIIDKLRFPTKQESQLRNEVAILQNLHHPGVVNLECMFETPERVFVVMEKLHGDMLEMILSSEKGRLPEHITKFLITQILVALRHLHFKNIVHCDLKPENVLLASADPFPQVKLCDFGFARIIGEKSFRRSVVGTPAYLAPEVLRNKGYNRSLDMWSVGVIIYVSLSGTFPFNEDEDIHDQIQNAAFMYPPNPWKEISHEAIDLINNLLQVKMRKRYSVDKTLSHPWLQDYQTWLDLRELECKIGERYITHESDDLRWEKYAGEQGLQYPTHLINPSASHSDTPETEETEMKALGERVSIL
# Motilin receptor = Motilin receptor (Homo sapiens, UniProt O43193); assay: Selectivity interaction (Motilin receptor binding assay, human recombinant ) EUB0000877a MLNR
# Motilin receptor, sequence (O43193 whole entry): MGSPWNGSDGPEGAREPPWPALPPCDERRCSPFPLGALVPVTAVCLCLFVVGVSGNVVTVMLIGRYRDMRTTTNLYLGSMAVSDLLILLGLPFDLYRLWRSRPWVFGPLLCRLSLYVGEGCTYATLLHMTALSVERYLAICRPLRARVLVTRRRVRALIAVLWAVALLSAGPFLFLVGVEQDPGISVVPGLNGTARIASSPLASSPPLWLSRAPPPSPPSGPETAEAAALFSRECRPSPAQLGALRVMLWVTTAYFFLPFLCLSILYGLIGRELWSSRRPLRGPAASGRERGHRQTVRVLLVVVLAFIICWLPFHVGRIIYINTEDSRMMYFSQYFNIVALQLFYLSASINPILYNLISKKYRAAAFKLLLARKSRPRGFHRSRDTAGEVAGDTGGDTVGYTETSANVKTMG
# [3] = molecular target: Calcium/calmodulin-dependent protein kinase type 1D (Homo sapiens) (UniProt Q8IU85); conditions: at 10 µM
# Calcium/calmodulin-dependent protein kinase type 1D (Homo sapiens), sequence (Q8IU85 whole entry, looked up): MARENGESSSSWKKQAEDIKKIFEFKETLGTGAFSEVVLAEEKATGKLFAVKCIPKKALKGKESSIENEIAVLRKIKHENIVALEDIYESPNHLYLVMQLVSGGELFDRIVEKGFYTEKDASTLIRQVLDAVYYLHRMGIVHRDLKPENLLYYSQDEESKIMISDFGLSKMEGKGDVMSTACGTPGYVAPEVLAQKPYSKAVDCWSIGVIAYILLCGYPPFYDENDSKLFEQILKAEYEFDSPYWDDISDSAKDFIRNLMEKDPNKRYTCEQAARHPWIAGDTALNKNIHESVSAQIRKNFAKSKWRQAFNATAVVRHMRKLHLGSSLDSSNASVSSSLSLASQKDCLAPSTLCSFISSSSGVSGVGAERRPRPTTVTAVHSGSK
# [4] = molecular target: Protein arginine N-methyltransferase 1 (Homo sapiens, UniProt Q99873); assay: Selectivity interaction (Transferase panel (protein, RNA, and DNA methyltransferases. and EP300 (acetyltransferase))) EUB0000270b PRMT1
# Protein arginine N-methyltransferase 1, sequence (Q99873 whole entry, looked up): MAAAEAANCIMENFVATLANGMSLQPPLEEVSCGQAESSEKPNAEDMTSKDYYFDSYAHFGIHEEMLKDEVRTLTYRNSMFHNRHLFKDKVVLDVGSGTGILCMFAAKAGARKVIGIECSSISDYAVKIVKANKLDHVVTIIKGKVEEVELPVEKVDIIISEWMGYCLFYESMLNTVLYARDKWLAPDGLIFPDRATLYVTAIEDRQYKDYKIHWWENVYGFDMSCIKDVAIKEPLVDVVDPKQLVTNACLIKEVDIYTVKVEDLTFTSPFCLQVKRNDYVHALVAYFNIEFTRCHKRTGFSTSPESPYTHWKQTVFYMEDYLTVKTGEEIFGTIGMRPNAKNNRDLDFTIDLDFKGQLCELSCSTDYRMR
# [5] = molecular target: Tyrosine-protein kinase Srms (Homo sapiens) (UniProt Q9H3Y6); assay: Selectivity interaction (Kinase panel (Invitrogen)) EUB0000639a SRMS; conditions: at 200 nM
# Tyrosine-protein kinase Srms (Homo sapiens), sequence (Q9H3Y6 whole entry): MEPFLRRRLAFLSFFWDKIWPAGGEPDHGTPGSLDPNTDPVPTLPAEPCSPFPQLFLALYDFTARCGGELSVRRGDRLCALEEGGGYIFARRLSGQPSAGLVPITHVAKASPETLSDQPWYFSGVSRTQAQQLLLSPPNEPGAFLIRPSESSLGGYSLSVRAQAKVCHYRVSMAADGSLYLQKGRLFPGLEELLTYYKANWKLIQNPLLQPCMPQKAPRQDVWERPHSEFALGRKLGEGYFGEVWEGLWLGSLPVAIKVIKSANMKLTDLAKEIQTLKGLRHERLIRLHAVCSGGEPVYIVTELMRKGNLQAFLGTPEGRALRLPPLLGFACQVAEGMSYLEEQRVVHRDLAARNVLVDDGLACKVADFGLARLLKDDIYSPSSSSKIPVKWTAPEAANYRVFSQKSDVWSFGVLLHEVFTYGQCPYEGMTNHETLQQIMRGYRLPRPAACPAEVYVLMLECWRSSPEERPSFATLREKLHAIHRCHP
# [6] = molecular target: 5'-AMP-activated protein kinase catalytic subunit alpha-1 (Homo sapiens, UniProt Q13131); assay: Selectivity interaction (ActivX KiNativ screen (kinase selectivity in THP-1 cell lysates)) EUB0000639a PRKAA1; assay type: subcellular; conditions: lysate, at 5 µM
# 5'-AMP-activated protein kinase catalytic subunit alpha-1, sequence (Q13131 whole entry, looked up): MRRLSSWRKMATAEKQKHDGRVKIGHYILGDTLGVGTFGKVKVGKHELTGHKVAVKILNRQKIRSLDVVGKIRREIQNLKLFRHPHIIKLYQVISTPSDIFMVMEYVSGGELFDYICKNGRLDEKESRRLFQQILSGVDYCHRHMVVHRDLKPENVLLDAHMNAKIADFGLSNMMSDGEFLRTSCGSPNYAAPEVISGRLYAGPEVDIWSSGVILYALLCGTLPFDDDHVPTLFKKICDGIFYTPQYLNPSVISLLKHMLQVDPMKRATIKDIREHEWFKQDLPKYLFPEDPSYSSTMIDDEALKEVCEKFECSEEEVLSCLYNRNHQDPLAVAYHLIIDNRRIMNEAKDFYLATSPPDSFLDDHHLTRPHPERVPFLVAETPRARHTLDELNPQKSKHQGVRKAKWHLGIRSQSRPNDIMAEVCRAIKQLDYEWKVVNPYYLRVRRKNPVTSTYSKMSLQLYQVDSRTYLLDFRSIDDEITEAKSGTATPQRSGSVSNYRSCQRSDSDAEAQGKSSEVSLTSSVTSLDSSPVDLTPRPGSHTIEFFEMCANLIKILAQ
# [7] = molecular target: T2, MAP/microtubule affinity-regulating kinase 4 (Homo sapiens) (UniProt Q96L34); assay: Selectivity interaction (ActivX KiNativ screen (kinase selectivity in THP-1 cell lysates)) EUB0000639a MARK4; assay type: subcellular; conditions: lysate, at 5 µM
# T2 sequence (whole entry): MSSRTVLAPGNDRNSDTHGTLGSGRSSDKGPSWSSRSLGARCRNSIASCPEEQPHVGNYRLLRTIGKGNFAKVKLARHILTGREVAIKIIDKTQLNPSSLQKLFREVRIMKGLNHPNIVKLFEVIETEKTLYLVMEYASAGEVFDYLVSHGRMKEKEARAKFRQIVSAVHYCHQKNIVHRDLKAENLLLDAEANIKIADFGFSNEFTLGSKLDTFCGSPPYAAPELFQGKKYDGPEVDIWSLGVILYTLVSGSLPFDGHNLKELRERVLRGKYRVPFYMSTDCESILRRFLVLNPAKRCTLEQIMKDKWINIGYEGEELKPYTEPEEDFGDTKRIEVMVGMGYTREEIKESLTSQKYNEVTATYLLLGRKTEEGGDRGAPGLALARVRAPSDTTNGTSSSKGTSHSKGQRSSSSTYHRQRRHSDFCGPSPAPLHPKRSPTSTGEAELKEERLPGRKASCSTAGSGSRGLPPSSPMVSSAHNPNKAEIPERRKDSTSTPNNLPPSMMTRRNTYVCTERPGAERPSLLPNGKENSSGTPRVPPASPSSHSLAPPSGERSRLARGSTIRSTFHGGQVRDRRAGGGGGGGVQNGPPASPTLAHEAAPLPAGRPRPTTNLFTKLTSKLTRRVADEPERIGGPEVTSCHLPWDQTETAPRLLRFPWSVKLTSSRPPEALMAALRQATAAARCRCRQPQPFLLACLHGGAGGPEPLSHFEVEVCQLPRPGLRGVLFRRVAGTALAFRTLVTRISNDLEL
# [8] = molecular target: T3, Serine/threonine-protein kinase Chk1 (Homo sapiens) (UniProt O14757); assay: Selectivity interaction (Ambit KINOMEscan and KiNATiv profiling in Jurkat cells) EUB0000090b CHEK1; assay type: cell-based; conditions: at 1 µM
# T3 sequence (whole entry): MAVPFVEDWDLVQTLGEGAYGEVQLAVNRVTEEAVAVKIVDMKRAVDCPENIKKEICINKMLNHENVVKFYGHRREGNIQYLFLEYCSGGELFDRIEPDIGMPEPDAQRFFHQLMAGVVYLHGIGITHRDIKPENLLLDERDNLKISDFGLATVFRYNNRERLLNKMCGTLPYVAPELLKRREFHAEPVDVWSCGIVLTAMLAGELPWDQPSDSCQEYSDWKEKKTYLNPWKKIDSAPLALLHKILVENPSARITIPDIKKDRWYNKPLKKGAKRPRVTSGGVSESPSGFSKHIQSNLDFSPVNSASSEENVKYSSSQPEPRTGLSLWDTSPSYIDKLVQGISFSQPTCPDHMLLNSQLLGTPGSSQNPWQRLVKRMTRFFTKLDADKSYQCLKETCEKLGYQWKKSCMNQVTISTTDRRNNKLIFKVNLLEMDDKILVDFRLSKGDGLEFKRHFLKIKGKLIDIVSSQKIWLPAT
# [9] = molecular target: Phosphatidylinositol 4-kinase beta (Homo sapiens, UniProt Q9UBF8); assay: Selectivity interaction (KinomeScan (DiscoverX)) EUB0000655a PI4KB; conditions: at 10 µM
# Phosphatidylinositol 4-kinase beta, sequence (Q9UBF8 2-816 limits assumed): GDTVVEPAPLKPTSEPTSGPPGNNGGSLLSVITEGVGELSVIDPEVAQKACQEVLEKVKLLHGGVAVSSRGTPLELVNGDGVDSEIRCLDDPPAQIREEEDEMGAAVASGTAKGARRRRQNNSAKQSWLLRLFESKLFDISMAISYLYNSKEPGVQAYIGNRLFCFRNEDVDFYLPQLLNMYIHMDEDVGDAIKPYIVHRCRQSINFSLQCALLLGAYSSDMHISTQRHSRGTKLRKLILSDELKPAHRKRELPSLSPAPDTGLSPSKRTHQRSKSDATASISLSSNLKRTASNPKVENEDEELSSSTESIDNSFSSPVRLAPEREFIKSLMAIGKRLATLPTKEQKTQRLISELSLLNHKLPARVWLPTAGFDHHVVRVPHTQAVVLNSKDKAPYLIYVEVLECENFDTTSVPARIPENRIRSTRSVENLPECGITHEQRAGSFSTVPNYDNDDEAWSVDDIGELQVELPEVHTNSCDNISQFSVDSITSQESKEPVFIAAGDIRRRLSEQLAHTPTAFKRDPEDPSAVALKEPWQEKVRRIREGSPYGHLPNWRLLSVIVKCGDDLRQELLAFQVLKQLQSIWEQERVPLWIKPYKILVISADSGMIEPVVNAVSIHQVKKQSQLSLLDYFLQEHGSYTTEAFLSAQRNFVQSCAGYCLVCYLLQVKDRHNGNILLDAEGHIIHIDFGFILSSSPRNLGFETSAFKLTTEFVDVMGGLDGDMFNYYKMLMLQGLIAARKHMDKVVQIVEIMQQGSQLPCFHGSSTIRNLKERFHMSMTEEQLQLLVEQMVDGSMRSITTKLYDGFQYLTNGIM
# [10] = molecular target: BDNF/NT-3 growth factors receptor (Homo sapiens) (UniProt Q16620); assay: Selectivity interaction (KinomeScan (DiscoverX)) EUB0000695a NTRK2; conditions: at 100 nM
# BDNF/NT-3 growth factors receptor (Homo sapiens), sequence (Q16620 32-822 limits assumed): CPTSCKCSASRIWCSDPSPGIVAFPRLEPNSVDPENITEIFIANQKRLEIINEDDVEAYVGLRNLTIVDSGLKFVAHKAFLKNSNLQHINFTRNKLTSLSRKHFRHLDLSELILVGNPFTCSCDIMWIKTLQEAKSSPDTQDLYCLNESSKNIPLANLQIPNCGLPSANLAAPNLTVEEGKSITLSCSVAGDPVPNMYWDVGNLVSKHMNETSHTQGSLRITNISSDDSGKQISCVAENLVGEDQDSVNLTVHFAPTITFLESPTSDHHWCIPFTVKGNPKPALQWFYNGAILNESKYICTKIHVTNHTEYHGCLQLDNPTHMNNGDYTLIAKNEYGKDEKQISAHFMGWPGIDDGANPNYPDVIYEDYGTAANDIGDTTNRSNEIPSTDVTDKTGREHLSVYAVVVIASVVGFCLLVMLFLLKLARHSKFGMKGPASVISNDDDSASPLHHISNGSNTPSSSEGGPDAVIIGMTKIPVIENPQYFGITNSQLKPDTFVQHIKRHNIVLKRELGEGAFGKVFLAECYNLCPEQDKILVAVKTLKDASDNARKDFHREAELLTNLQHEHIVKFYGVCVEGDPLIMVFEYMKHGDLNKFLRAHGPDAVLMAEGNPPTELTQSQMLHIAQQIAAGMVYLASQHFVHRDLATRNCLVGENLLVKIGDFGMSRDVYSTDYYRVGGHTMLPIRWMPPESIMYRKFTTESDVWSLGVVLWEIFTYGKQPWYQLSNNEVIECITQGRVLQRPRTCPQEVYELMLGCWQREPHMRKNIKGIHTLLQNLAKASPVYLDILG
# [11] = molecular target: Dual specificity protein kinase CLK4 (Homo sapiens, UniProt Q9HAZ1); assay: Selectivity interaction (ProQinase) EUB0000171b CLK4
# Dual specificity protein kinase CLK4, sequence (Q9HAZ1 whole entry, looked up): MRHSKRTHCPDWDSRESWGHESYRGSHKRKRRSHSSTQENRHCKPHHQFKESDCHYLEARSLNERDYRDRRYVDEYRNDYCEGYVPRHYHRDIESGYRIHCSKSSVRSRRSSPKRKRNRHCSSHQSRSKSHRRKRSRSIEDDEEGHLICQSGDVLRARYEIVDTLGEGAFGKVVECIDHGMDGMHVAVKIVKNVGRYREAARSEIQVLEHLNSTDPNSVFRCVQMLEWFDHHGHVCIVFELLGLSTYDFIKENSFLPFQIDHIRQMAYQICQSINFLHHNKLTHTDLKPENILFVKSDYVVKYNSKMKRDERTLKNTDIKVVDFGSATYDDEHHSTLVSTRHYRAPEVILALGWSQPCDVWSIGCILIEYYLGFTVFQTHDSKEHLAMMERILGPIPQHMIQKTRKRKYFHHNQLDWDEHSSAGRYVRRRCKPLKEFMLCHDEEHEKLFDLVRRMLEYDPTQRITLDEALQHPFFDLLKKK
# Serine/threonine-protein kinase PAK 2 (Homo sapiens), sequence (Q13177 whole entry): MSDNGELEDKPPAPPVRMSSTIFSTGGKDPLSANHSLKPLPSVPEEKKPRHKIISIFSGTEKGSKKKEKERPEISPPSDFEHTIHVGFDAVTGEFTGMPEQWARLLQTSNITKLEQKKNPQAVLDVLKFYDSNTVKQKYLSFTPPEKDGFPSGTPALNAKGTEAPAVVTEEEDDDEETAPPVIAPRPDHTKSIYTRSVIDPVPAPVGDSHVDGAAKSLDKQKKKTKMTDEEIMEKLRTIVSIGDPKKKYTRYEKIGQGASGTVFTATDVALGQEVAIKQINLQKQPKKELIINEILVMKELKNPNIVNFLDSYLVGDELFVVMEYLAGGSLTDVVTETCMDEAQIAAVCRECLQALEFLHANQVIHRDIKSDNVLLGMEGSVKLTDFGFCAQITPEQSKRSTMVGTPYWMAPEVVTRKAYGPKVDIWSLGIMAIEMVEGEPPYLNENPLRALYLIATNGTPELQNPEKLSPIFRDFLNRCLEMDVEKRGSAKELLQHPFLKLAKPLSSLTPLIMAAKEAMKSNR
smiles,measurement,setting,value
COc1cc(N(C)c2ccnc3ccc(C(F)(F)F)cc23)cc(OC)c1OC,% binding,[1],77%
Nc1cnc(N2CCc3cc(S(=O)(=O)Nc4c(F)cc(Cl)cc4F)cc(N4CCCC4=O)c32)nc1 [TP-020n],% of control,[2],83%
CCC(=O)N1CC[C@H](Nc2ncnc3c2CN(c2cnc(OC)c(C(F)(F)F)c2)CC3)C1 [LENIOLISIB],IC50,Motilin receptor,> 30 µM
CCN(CC)CCCCNc1ncc2cc(-c3cc(OC)cc(OC)c3)c(NC(=O)NC(C)(C)C)nc2n1,% of control,[3],100%
Cc1cc(CN)cc(C)c1-c1ncn(C)c1-c1cncn1C,% activity,[4]; at 1 µM,> 90%
same,% activity,[4]; at 10 µM,> 80%
CC[C@@H]1[C@H](F)C(=O)N[C@@H]1COc1nccc2cc(C(N)=O)c(OC)cc12 [ZIMLOVISERTIB],% of inhibition,[5],6.49%
same,% of inhibition,[6],21.9%
same,% of inhibition,[7],27.1%
CN(C)C/C=C/C(=O)Nc1ccc(C(=O)N2CCCC(Nc3ncc(Cl)c(-c4c[nH]c5ccccc45)n3)C2)cc1 (centres undefined),% of control,[8],89%
CN(C)CCOc1ccc(-c2nc(-c3ccncc3)c(-c3ccc4c(c3)CC/C4=N\O)[nH]2)cc1,% of control,[9],88%
Cc1cc(F)c(C(=O)Nc2cccc(-c3nncn3C(C)C)n2)cc1-n1cnc(C2CC2)c1,% of control,[10],65%
C=CC(=O)Nc1cccc(C(=O)Nc2ccc(Nc3cc(-c4[nH]c(SC)nc4C)ccn3)cc2)c1,% of control,[11]; at 1 µM,46%
same,% of control,[11]; at 5 µM,20%
